Test results published in patent publication US11559544B2, “Combination of a MAPK/ERK pathway inhibitor and a glycosaminoglycan for the treatment of cancer” (CELL RECEPTOR AG, priority 2017, dated 2023).

Key:
[1] = tested on: colorectal cancer cell lines COL0205 and HCT116 resistant to PD184352; test: Growth of CI-1040 (PD184352)-resistant cancerous cells co-incubated daily with platelets (Example 2); type: cell-based; conditions: serum-free, platelets 30 minutes each day; for fate of cell population incubated with MEK inhibitor and PPS or DXS: in the presence of CI-1040 (PD184352)
Method: (§1) Three populations of cells are cultivated in the presence of the inhibitor under serum-free conditions.
(§2) For a first population of the cells PPS is added to the cell culture dishes, while for a second population, i.e. the control cells, no PPS is added.
(§3) For a third population of the cells DXS is added to the cell culture dishes.
(§4) Each day all cell populations are co-incubated with platelets for 30 minutes, which are subsequently washed away.
The second experiment is performed as described for Example 1 except that cells are cultivated in the presence of the MEK inhibitor CI-1040 (PD184352).
As described in Little et al. 2011 in detail cancerous cells that have developed a resistance against the MEK inhibitor PD184352 are generated by growing colorectal cancer cell lines harboring mutations in BRAF (COL0205) or KRAS (HCT116) in the presence of increasing concentrations of […] without clonal selection until they grow apparently normally in 1 μm, 2 μM or […].
For each of the cancerous cells lines that have developed a resistance against the MEK inhibitor CI-1040 (PD184352) the cultivation steps as in Example 1 are performed, except that the cells are cultivated in the presence of the MEK inhibitor CI-1040 (PD184352).

[2] = tested on: melanoma cell line A375 resistant to dabrafenib; test: Growth of dabrafenib-resistant cancerous cells co-incubated daily with platelets (Example 6); type: cell-based, human; conditions: serum-free, platelets 30 minutes each day; for fate of cell population incubated with Raf inhibitor and PPS or DXS: in the presence of dabrafenib
Method: as §1, §2, §3, §4
The sixth experiment is performed as described for Example 1 except that cells that have developed a resistance against the Raf inhibitor dabrafenib are used and cultivated in the presence of the Raf inhibitor dabrafenib.
As described in Caparorali et al. 2011 in detail cancerous cells that have developed a resistance against the Raf inhibitor dabrafenib are generated by growing the human melanoma cell line A375 in gradually increasing concentrations of dabrafenib (from 1 nM up to 1.5 μM) over a period of 4 months and subsequently maintaining the dabrafenib-resistance cell lines in CM supplemented with 1.5 μM dabrafenib.
For each of the cancerous cells lines that have developed a resistance against the Raf inhibitor dabrafenib the cultivation steps as in Example 1 are performed, except that the cells are cultivated in the presence of the Raf inhibitor dabrafenib.

[3] = tested on: Hepatocellular carcinoma (HCC) Huh7 cells resistant to sorafenib; test: Growth of sorafenib-resistant cancerous cells co-incubated daily with platelets (Example 5); type: cell-based, human; conditions: serum-free, platelets 30 minutes each day; for fate of cell population incubated with Raf inhibitor and PPS or DXS: in the presence of sorafenib
Method: as §1, §2, §3, §4
The fifth experiment is performed as described for Example 1 except that cells that have developed a resistance against the Raf inhibitor sorafenib are used and cultivated in the presence of the Raf inhibitor sorafenib.
As described in Chen et al. 2011 in detail cancerous cells that have developed a resistance against the Raf inhibitor sorafenib are generated by growing the human Hepatocellular carcinoma (HCC) Huh7 in a long term exposure to sorafenib.
For each of the cancerous cells lines that have developed a resistance against the Raf inhibitor sorafenib the cultivation steps as in Example 1 are performed, except that the cells are cultivated in the presence of the Raf inhibitor sorafenib.

[4] = tested on: colorectal cancer cell lines COL0205, HT29, HCT116 and LoVo resistant to Selumetinib; test: Growth of Selumetinib-resistant cancerous cells co-incubated daily with platelets (Example 1); type: cell-based; conditions: in the presence of Selumetinib, serum-free, platelets 30 minutes each day
Method: The experiment is performed on cancerous cells that have developed a resistance against the MEK inhibitor Selumetinib. As described in Little et al. 2011 in detail cancerous cells that have developed a resistance against the MEK inhibitor Selumetinib are generated by growing colorectal cancer cell lines harboring mutations in BRAF (COL0205 and HT29 lines) or KRAS (HCT116 and LoVo lines) in the presence of increasing concentrations of AZD6244 (Selumetinib) without clonal selection until they grow apparently normally in 1 μm, 2 μM or 4 μM of the drug.
For each of the cancerous cells lines that have developed a resistance against the MEK inhibitor Selumetinib the following steps are performed:
as §1, §2, §3, §4
Control cells in the growth cycle express platelet receptors on their surface. Platelets adhere to the control cells and release growth factors from their alpha granules. The control cells will take up the factors and proceed through the cell cycle, even in the presence of the MEK inhibitor.

[5] = tested on: cancerous cells resistant against an RTK inhibitor; test: Growth of RTK inhibitor-resistant cancerous cells co-incubated daily with platelets (Example 7); type: cell-based; conditions: in the presence of the RTK inhibitor, serum-free, platelets 30 minutes each day
Method: as §1, §2, §3, §4
The seventh experiment is performed as described for Example 1, except that the cancerous cells are resistant against an RTK inhibitor and the three populations of cells are cultivated in the presence of the RTK inhibitor.

[6] = tested on: NRAS mutant melanoma cell lines DO4 and MM415 resistant to trametinib; test: Growth of trametinib-resistant cancerous cells co-incubated daily with platelets (Example 3); type: cell-based, Human; conditions: in the presence of trametinib, serum-free, platelets 30 minutes each day
Method: as §1, §2, §3, §4
The third experiment is performed as described for Example 1 except that cells that have developed a resistance against the MEK inhibitor trametinib (GSK1120212) are used and cultivated in the presence of the MEK inhibitor trametinib.
As described in Vujic et al. 2014 in detail cancerous cells that have developed a resistance against the MEK inhibitor trametinib are generated by growing Human NRAS mutant melanoma cell lines DO4 and MM415 in the presence of increased concentrations of trametinib (GSK1120212) over a period of approximately 6 months.
For each of the cancerous cell lines that have developed a resistance against the MEK inhibitor trametinib the cultivation steps as in Example 1 are performed, except that the cells are cultivated in the presence of the MEK inhibitor trametinib.

[7] = tested on: melanoma cell line SK-MEL-28 (BRAF V600E) resistant to vemurafenib; test: Growth of vemurafenib-resistant cancerous cells co-incubated daily with platelets (Example 4); type: cell-based; conditions: in the presence of vemurafenib, serum-free, platelets 30 minutes each day
Method: as §1, §2, §3, §4

[8] = fraction of Heparin's activity; cited from earlier work

Compound	adherence of platelets to the cancerous cells [4]	fate of cell population incubated with MEK inhibitor and PPS or DXS [4]	fate of cell population incubated with RTK inhibitor and PPS or DXS [5]	fate of cell population incubated with Raf inhibitor and PPS or DXS [3]	fate of cell population incubated with MEK inhibitor and PPS or DXS [6]	fate of cell population incubated with Raf inhibitor and PPS or DXS [2]	fate of cell population incubated with MEK inhibitor and PPS or DXS [1]	fate of cell population incubated with Raf inhibitor and PPS or DXS [7]	further results
O=C(NOCC1CC1)c1ccc(F)c(F)c1Nc1ccc(I)cc1Cl [CI-1040]	–	–	–	–	–	–	–	–	growth of control cells with MEK inhibitor alone (no PPS/DXS) ([1]; CI-1040 (PD184352) alone): continue to grow and divide
CC(C)(C)c1nc(-c2cccc(NS(=O)(=O)c3c(F)cccc3F)c2F)c(-c2ccnc(N)n2)s1 [dabrafenib]	–	–	–	–	–	–	–	–	growth of control cells with Raf inhibitor alone (no PPS/DXS) ([2]; dabrafenib alone): continue to grow and divide
CNC(=O)c1cc(Oc2ccc(NC(=O)Nc3ccc(Cl)c(C(F)(F)F)c3)cc2)ccn1 [sorafenib]	–	–	–	–	–	–	–	–	growth of control cells with Raf inhibitor alone (no PPS/DXS) ([3]; sorafenib alone): continue to grow and divide
Dextran sulfate [DXS]	prevents the platelet from adhering to the cancerous cells	perish	perish	perish	perish	perish	perish	perish	–
Pentosan polysulfate [PPS]	prevents the platelet from adhering to the cancerous cells	perish	perish	perish	perish	perish	perish	perish	anticoagulant activity relative to that of Heparin [8]: 1/15
